In patent US20240327423A1, “A SERIES OF PYRROLE DERIVATIVES AND THEIR PREPARATION METHOD AND THERAPEUTIC USE” (SHENZHEN SUNGENING BIO-MEDICAL CO., LTD, priority 2020, published 2024):
In brackets after ≈: the same amount, converted by molar mass.

Legend:
[1] = test system: Aspergillus fumigatus (ATCC MYA-4609/AF293/CBS 101355); experiment: Measurement of minimum inhibitory concentration (MIC), AF293; format: cell-based; conditions: CBS101355; Aspergillus fumigatus AF293, 35° C., 48 hours, RPMI1640; read-out: AF293: MIC
Procedure, shortened: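 Broth microdilution in RPMI1640 buffered with 0.165M MOPS, pH 7.0, spore inoculum 0.2-2.5×10^4 spores/mL from SDA cultures. Twofold compound dilutions in DMSO, 1% of final volume. Incubated 35 °C for 48 h; growth scored visually with magnifier and OD530 read.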

[2] = test system: Aspergillus fumigatus (ATCC-204305); experiment: Measurement of minimum inhibitory concentration (MIC), ATCC 204305; format: cell-based; conditions: ATCC204305; Aspergillus fumigatus ATCC 204305, 35° C., 48 hours
Description: New streaks are made with glycerol stock solution of the strains of Aspergillus [NT] MYA-4609/AF 293/CBS 101355) on Sabouraud's dextrose agar (SDA), incubate at 35° C. and a humidity of 40-70% for 72 hours. Other strains are processed as the same as AF293. RPMI1640: one packet of RPMI1640 powder is dissolved in 1 L purified water and mixed well, add 0.165M MOPS, adjust the pH to 7.0, sterilize by filtration with 0.22 um membrane, and store at 4° C. for no more than 3 months. Physiological saline: weigh 9 g of sodium chloride powder and dissolve in 1 L of purified water, and mixed well. […] Dissolve the test compound and stock solution of one control compound with DMSO and obtain solutions at a concentration of 12.8 mg/mL The maximum concentration of each compound is 0.8 mg/mL (e.g., 150 μL of dimethyl sulfoxide+10 uL of 12.8 mg/mL compound/control). […] Repeat the above steps up to column 11 to give 2× serial dilutions. 2 μL of the above 2× serial dilutions are injected into each hole of the corresponding test plate using a multichannel pipette. Drop 5 ml of saline on the Aspergillus fumigatus SDA plate. The spores were carefully wiped off from the surface of the plate with an L-shaped coating rod. Then the suspension is transferred into a sterile tube. After shaking, let the tube stand for 5 to 10 minutes. Count the number of spores in the upper suspension with a hemocytometer and check the purity. Adjust the inoculum concentration to 0.2-2.5×10^4 spores/mL. Inject 198 μL of diluted inoculum into each holes of the corresponding test plate using a multichannel pipette. Incubate at 35° C. for 48 hours. […] To facilitate scoring of the presence or absence of growth on the wall, a magnifying glass is used. The tested 96-well microplates were photographed and the optical density at 530 nm is read with an enzyme marker (Tecan Spark).

[3] = test system: Aspergillus flavus (ATCC 204304); experiment: Measurement of minimum inhibitory concentration (MIC), ATCC 204304; format: cell-based; conditions: ATCC204304; Aspergillus flavus ATCC 204304, 35° C., 48 hours
Description: (§1) New streaks are made with glycerol stock solution of the strains of Aspergillus fumigatus (ATCC MYA-4609/AF 293/CBS 101355) on Sabouraud's dextrose agar (SDA), incubate at 35° C. and a humidity of 40-70% for 72 hours. Other strains are processed as the same as AF293.
(§2) RPMI1640: one packet of RPMI1640 powder is dissolved in 1 L purified water and mixed well, add 0.165M MOPS, adjust the pH to 7.0, sterilize by filtration with 0.22 um membrane, and store at 4° C. for no more than 3 months.
(§3) Physiological saline: weigh 9 g of sodium chloride powder and dissolve in 1 L of purified water, and mixed well. Sterilize at 121° C. for 30 min, store at room temperature (RT) for no more than 1 week.
(§4) Dissolve the test compound and stock solution of one control compound with DMSO and obtain solutions at a concentration of 12.8 mg/mL
(§5) The maximum concentration of each compound is 0.8 mg/mL (e.g., 150 μL of dimethyl sulfoxide+10 uL of 12.8 mg/mL compound/control). Column 1 is filled with 40 μL of compound and columns 2 to 11 with 20 μL of dimethyl sulfoxide. Transfer 20 μL of compound from column 1 to column 2 to dilute the concentration. Repeat the above steps up to column 11 to give 2× serial dilutions.
(§6) 2 μL of the above 2× serial dilutions are injected into each hole of the corresponding test plate using a multichannel pipette.
(§7) Drop 5 ml of saline on the Aspergillus fumigatus SDA plate. The spores were carefully wiped off from the surface of the plate with an L-shaped coating rod. Then the suspension is transferred into a sterile tube. After shaking, let the tube stand for 5 to 10 minutes. Count the number of spores in the upper suspension with a hemocytometer and check the purity. Adjust the inoculum concentration to 0.2-2.5×10^4 spores/mL.
(§8) Inject 198 μL of diluted inoculum into each holes of the corresponding test plate using a multichannel pipette.
(§9) Incubate at 35° C. for 48 hours.
(§10) To facilitate scoring of the presence or absence of growth on the wall, a magnifying glass is used. The tested 96-well microplates were photographed and the optical density at 530 nm is read with an enzyme marker (Tecan Spark).

[4] = test system: Aspergillus flavus (ATCC MYA-1004); experiment: Measurement of minimum inhibitory concentration (MIC), ATCC MYA-1004; format: cell-based; conditions: Aspergillus flavus ATCC MYA-1004, 35° C., 48 hours
Description: as §1, §2, §3, §4, §5, §6, §7, §8, §9, §10

[5] = Pharmacokinetic test in SD rats, single oral administration; format: in vivo; conditions: SD, rat, plasma, po, 10 mg/kg, single oral administration 10 mg/kg, test compound mixed with F901318, plasma
Description: Pharmacokinetic study is performed on SD rats receiving single oral administration of each test compound mixed with F901318 (10 mg/kg, 3 rats per group). Test compounds and F901318 are dissolved with […]+10% solutol+85% saline, vortexed for 1-2 mins and ultra-sonicated for 5-10 mins to form a colorless clear drug solution. The animals are fasted overnight before oral administration, and resumed feeding 4 hours after administration. After oral administration, pharmacokinetic samples are collected from orbital blood of SD rats at 0.083 h, 0.25 h, 0.5 h, 1 h, 2 h, 4 h, 6 h, 8 h, and 24 h, and three whole blood samples are collected at each time point in a volume of 0.2-0.3 mL. Blood samples are placed on ice immediately after collected, and the plasma is separated by centrifugation within 15 min (centrifugation conditions: 8000 rpm, 1 min, and at room temperature).
The collected plasma is stored at −20° C. prior to analysis. Transfer 20 μL of plasma sample into an 0.5 mL EP tube, add 200 μL of working internal standard solution (blank group is without internal standard, using the same volume of solvent instead), vortex and mix for 3 min centrifuge at 13500 rpm for 10 min, take 100 μL of supernatant and analyze with LC-MS/MS.

[6] = Liver microsomal stability test, human; format: in vitro ADME; conditions: Human liver microsomes; for CLint scaled / half-life: 0.5 mg/mL protein, 37° C., NADPH
Description: (§11) • 1: Add 10 μL of working solutions of test product or reference product and 80 μL of microsomal working solution (liver microsomal protein concentration of 0.5 mg/mL) to wells of TO, T5, T10, T20, T30, T60, and NCF60, and only microsomal working solution is added to the Blank60 wells. Then the samples of Blank60, T10, T20, T30 and T60, except for TO and NCF60, are placed in a water bath set at 37° C. and incubate for approximately 10 mins; • 2: Add 300 μL of termination solution (acetonitrile solution containing 200 ng/mL tolbutamide and 200 ng/mL labetalol) to Sample TO, followed by 10 ul of NADPH regeneration system working solution; • 3: After incubation of Blank60, T5, T10, T20, T30 and T60 on incubation plates, add 10 μL of NADPH regeneration system working solution to each sample well to start the reaction, and 10 uL of 100 mM potassium phosphate buffer is add to the NCF60 sample wells; • 4: After incubation for appropriate times (e.g., 5, 10, 20, 30 and 60 mins), 300 μL of termination solution is add to each sample well of test product and reference product on Blank60, T5, T10, T20, T30, T60 and NCF60 plates, respectively, to terminate the reaction. • 5: All sample plates are shaken well and centrifuged at 4000 rpm for 20 min, take 100 μL of the supernatant of the test product or reference product, dilute in 300 μL of pure water for LC-MS/MS analysis, respectively. • 6: Data analysis, T½ and CLint(mic) (μL/min/mg) values are calculated based on the first-order elimination kinetics, and the equations of first-order elimination kinetics are: […]

[7] = Liver microsomal stability test, mouse; format: in vitro ADME; conditions: Mouse liver microsomes; for CLint scaled / half-life: 0.5 mg/mL protein, 37° C., NADPH
Description: as §11

| MIC [1] [µg/mL] | MIC [2] [µg/mL] | MIC [3] [µg/mL] | MIC [4] [µg/mL] | AUC ([5]; read-out: AUC) [ng·h/mL] | Cmax ([5]; read-out: Cmax) [ng/mL] | Tmax ([5]; read-out: Tmax) [min] | half-life ([5]; read-out: T½ (converted)) [min] | CLint scaled [6] [mL/min/kg] | half-life [6] [min] | Remaining, (T = 60 min) [6] [%] | CLint scaled [7] [mL/min/kg] | half-life [7] [min] | Remaining, (T = 60 min) [7] [%] | SMILES |
| --- | --- | --- | --- | --- | --- | --- | --- | --- | --- | --- | --- | --- | --- | --- |
| 0.125 (≈ 0.237 µM) | 0.016 (≈ 0.0304 µM) | 0.008 (≈ 0.0152 µM) | 0.008 (≈ 0.0152 µM) | 18700 | 1420 | 55 | 321 |  |  |  |  |  |  | Cc1cc(-c2ccccc2)c(C(=O)C(=O)Nc2ccc3c(c2)OCC2CN(c4ncc(F)cn4)CCN32)n1C (stereo not shown) [Example 3, 2-(1,5-dimethyl-3-phenyl-1H-pyrrol-2-yl)-N-(3-(5-fluoropyrimidin-2-yl)-1,2,3,4,4a,5-hexahydrobenzo[b]pyrazino[1,2-d][1,4]oxazin-8-yl)-2-oxoacetamide] |
| 0.008 (≈ 0.0152 µM) | 0.03 (≈ 0.0572 µM) | 0.016 (≈ 0.0305 µM) | 0.016 (≈ 0.0305 µM) |  |  |  |  | 56.4 | 22.1 | 26.6 | 89.8 | 27.8 | 26.2 | Cc1cc(-c2ccccc2)c(C(=O)C(=O)Nc2ccc3c(c2)CCC2CN(c4ncc(F)cn4)CCN32)n1C (stereo not shown) [Example 32, 2-(1,5-dimethyl-3-phenyl-1H-pyrrol-2-yl)-N-(3-(5-fluoropyrimidin-2-yl)-2,3,4,4a,5,6-hexahydro-1H-pyrazino [1,2-a]quinolin-8-yl)-2-oxoacetamide] |
| 0.016 (≈ 0.0313 µM) | 0.03 (≈ 0.0588 µM) | 0.016 (≈ 0.0313 µM) | 0.008 (≈ 0.0157 µM) |  |  |  |  | 31.3 | 39.9 | 34.5 | 45.9 | 54.4 | 48.5 | Cc1cc(-c2ccccc2)c(C(=O)C(=O)Nc2ccc3c(c2)C[C@@H]2CN(c4ncc(F)cn4)CCN32)n1C [Example 34, (R)-2-(1,5-dimethyl-3-phenyl-1H-pyrrol-2-yl)-N-(2-(5-fluoropyrimidin-2-yl)-1,2,3,4,10,10a-hexahydropyrazino [1,2-a]indol-8-yl)-2-oxoacetamide] |
